Test results published in a melting point compilation (Tetko et al.; mined from patent text by program, amines drawn as free bases though some values may be those of a salt).

First: CN1CCC23c4c5ccc(O[Si](C)(C)C(C)(C)C)c4OC2C(O[Si](C)(C)C(C)(C)C)C=CC3C1C5 (centres undefined)
Second: CC(=O)OC1CSC(Oc2cccc(-c3cnoc3C)c2)C(OC(C)=O)C1OC(C)=O (centres undefined)
The melting point of the first is higher: 118 to 119 °C for the first, 60 °C for the second.

Compared with `O=C(c1ccccc1Nc1ccc(O)cc1)N1CCCCC1`, `O=C(CCC(=O)N1CCCCC1)c1ccc(F)cc1` is lower in melting point: 199 to 201 °C for the first, 70 to 71 °C for the second.

First: COC(=O)[C@H](Cc1cc(Cl)c(OCc2cccc3cc(-c4ccccc4)oc23)c(Cl)c1)NC(=O)C(F)(F)F
Second: Cc1cc(C)c(C)c(COc2cccc(-c3coc(C(=O)NNC(=O)c4ccc(O)c(C#N)c4)c3-c3ccccc3)c2)c1C
The melting point of the first is lower: 141 to 145 °C for the first, 242 to 247 °C for the second.

First: CONC(=O)Nc1ccc(-c2sc3c(c2CN(C)C(C)c2ccccn2)c(=O)n(-c2ccccc2)c(=O)n3Cc2c(F)cccc2F)cc1 (centres undefined)
Second: COc1ccc(-c2ccc(C(=O)Nc3ccc4cc(CN5CCCC5)cnc4c3)c(F)c2)cc1
The melting point of the first is lower: 146 to 148 °C for the first, 174 °C for the second.

First: CC12CC(N3CCC(O)CC3)C(O)CC1CCC1C2CCC2(C)C(O)C(N3CCC(O)CC3)CC12 (centres undefined)
Second: O=C(O)c1ccccc1-c1ccc2c(C(=O)NCC34CC5CC(CC(C5)C3)C4)c(Cl)ccc2n1
The melting point of the first is higher: 248 to 250 °C for the first, 156 to 158 °C for the second.

Compared with `NS(=O)(=O)c1ccc(N2CCN(Cc3ccc4c(c3)NC(=O)CO4)CC2)cc1`, `CCOC(=O)Nc1cc(-c2ccccc2)n(-c2ccc(S(N)(=O)=O)cc2)n1` is lower in melting point: 150 to 153 °C for the first, 121 to 128 °C for the second.

Compared with `C#CCOc1cc(-n2ncc(=O)n(C)c2=O)c(Cl)cc1Cl`, `CCCCCN1C(=O)C(CCC(=O)O)(NC(=O)c2ccc(Cl)c(Cl)c2)c2ccccc21` (centres undefined) is higher in melting point: 119 to 120 °C for the first, 202 to 204 °C for the second.

First: CSC1=Nc2ccccc2C2=NCC(CBr)N12 (centres undefined)
Second: CCOC(=NC(=O)c1ccc(Cl)c(Cl)c1)N1Cc2ccccc2-c2ccccc2C1
The melting point of the first is higher: 162 to 163 °C for the first, 138 °C for the second.

Compared with `CSc1ccc(C(=O)C#CCO)cc1`, `CCNC(=O)C=CC(C)=CC=C(C)c1ccc2c(c1)C(C)(C)CCC2(C)C` is higher in melting point: 73 to 74 °C for the first, 150 to 159 °C for the second.

First: COc1ccc2cnoc2c1Cl
Second: COc1cc2c(cn1)CCCC2=NO
The melting point of the first is lower: 115 to 118 °C for the first, 175 to 178 °C for the second.

Compared with `CCCC1CCC=CCCCC(=O)OCCN1C(=O)OCC1c2ccccc2-c2ccccc21` (centres undefined), `O=C(CNc1ccc2[nH]c(=O)oc2c1)N1CCC(Cc2ccccc2)CC1` is higher in melting point: 148 to 150 °C for the first, 204 to 206 °C for the second.

First: CNS(=O)(=O)Cc1ccc2[nH]cc(C3CCN(C)C3)c2c1 (centres undefined)
Second: COc1ccc(CNC(=O)N2CCN(c3ncnc4cc(OC)c(OC)cc34)CC2)cc1
The melting point of the first is higher: 160 to 162 °C for the first, 147 to 148 °C for the second.

First: c1cnc2c(OCCOc3nccnc3N3CCNCC3)cccc2c1
Second: CCCc1ccccc1OCCCOc1ccc2c(=O)cc(C(=O)OCC)oc2c1
The melting point of the first is higher: 98 to 100 °C for the first, 73 to 75 °C for the second.

Compared with `COC1=C(OC)C(=O)C(CCCCCCCCCCCCC(=O)O)=C(C)C1=O`, `CCOC(=O)CCCCOc1ccc(OCC)cc1C=O` is higher in melting point: 62 °C for the first, 80 to 81 °C for the second.

First: Cc1cc2c(c(C3=NNC(=O)CC3C)c1)OCCN2 (centres undefined)
Second: O=C1Nc2ccc(I)cc2C1=NNC(=O)C1CCN(Cc2cccnc2)CC1
The melting point of the first is higher: 160 to 162 °C for the first, 125 °C for the second.

Compared with `Cc1nc(O)sc1CCCl`, `C=C(Cl)CSC1=C(O)CC(C)(C)CC1=O` is lower in melting point: 151 to 152 °C for the first, 103 to 106 °C for the second.

First: c1ccc2c(c1)CC1(c3c[nH]cn3)CCCC21 (centres undefined)
Second: O=C(NC(CS)Cc1ccccc1)N1C=CC=CC1 (single isomer, unassigned; (+))
The melting point of the first is higher: 171 to 174 °C for the first, 115 to 117 °C for the second.

First: C/C(=C\Cn1oc(=O)[nH]c1=O)c1cccc(OCc2nc(-c3ccc(OCC(F)(F)F)cc3)oc2C)c1
Second: Cc1cc([N+](=O)[O-])c(C)cc1Oc1cccc(C(F)(F)F)c1
The melting point of the first is higher: 145 to 146 °C for the first, 68 to 71 °C for the second.

First: Oc1ccc(Oc2cnc3cc(F)ccc3n2)cc1
Second: N#Cc1cc(-c2ccoc2)c2ccc(COc3cc(F)cc(-c4ccccc4)c3)cc2n1
The melting point of the first is lower: 78 to 79 °C for the first, 150 to 152 °C for the second.

`OC(CCl)COc1ccccc1OCC(O)CCl` (centres undefined) gave a melting point of 64 to 66 °C.
